Results from patent publication US11267811B2, “Small molecule inhibitors of galectin-3” (BRISTOL-MYERS SQUIBB COMPANY, priority 2017, dated 2022).
Where two headings read alike, the source gives them in different places.

Target: His-tagged recombinant human Gal-3 (hGal-3) (Homo sapiens (Human), UniProt P17931)
Assay: Gal-3 HTRF assay (His-tagged hGal-3 binding to B-ASF);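 also: compounds preincubated 30 min with hGal-3, then 1 h with B-ASF, detection via terbium anti-His antibody and streptavidin d2. Control with B-ASF counts as full signal, omitting B-ASF as background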
[1] = HTRF, hGal-3 15 nM, B-ASF 15 nM, read-out: hGal-3 IC50

Chain of His-tagged recombinant human Gal-3 (hGal-3) (P17931 whole entry): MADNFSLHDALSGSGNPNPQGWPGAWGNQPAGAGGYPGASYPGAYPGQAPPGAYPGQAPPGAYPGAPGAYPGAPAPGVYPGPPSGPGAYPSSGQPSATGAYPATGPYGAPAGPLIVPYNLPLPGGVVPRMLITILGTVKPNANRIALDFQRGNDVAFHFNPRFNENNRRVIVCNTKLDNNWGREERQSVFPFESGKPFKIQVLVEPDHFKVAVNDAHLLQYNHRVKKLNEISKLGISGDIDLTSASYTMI

IC50 [1] | Structure (SMILES) | other results
60 nM | CCc1nc([C@@H]2O[C@H](CO)[C@H](O)[C@H](n3cc(-c4cc(F)c(F)c(F)c4)nn3)[C@H]2O)n(-c2ccc3nc(C)sc3c2)n1 [Example 267] | –
4460 nM | Cn1ncnc1[C@@H]1O[C@H](CO)[C@H](O)[C@H](n2cc(-c3cc(F)c(F)c(F)c3)nn2)[C@H]1O [Example 44] | –
23 nM | O=C(O)CO[C@@H]1[C@@H](n2cc(-c3cc(F)c(F)c(F)c3)nn2)[C@@H](O)[C@@H](CO)O[C@H]1c1ncnn1-c1cccc(Cl)c1 [Example 53, 2-(((2S,3R,4S,5R,6R)-2-(1-(3-chlorophenyl)-1H-1,2,4-triazol-5-yl)-5-hydroxy-6-(hydroxymethyl)-4-(4-(3,4,5-trifluorophenyl)-1H-1,2,3-triazol-1-yl)tetrahydro-2H-pyran-3-yl)oxy)acetic acid] | –
900 nM | CC(=O)Nc1cccc(-n2cnnc2[C@@H]2O[C@H](CO)[C@H](O)[C@H](n3cc(-c4cc(F)c(F)c(F)c4)nn3)[C@H]2O)c1 [Example 84] | –
350 nM | OC[C@H]1O[C@@H](c2nncn2-c2ccccc2F)[C@H](O)[C@@H](n2cc(-c3cc(F)c(F)c(F)c3)nn2)[C@H]1O [Example 97] | –
970 nM | CCO[C@@H]1[C@@H](n2cc(-c3cc(F)c(F)c(F)c3)nn2)[C@@H](O)[C@@H](CO)O[C@H]1n1nncc1-c1cccc(Cl)c1 [Example 12, (2R,3R,4S,5R,6R)-6-(5-(3-chlorophenyl)-1H-1,2,3-triazol-1-yl)-5-ethoxy-2-(hydroxymethyl)-4-(4-(3,4,5-trifluorophenyl)-1H-1,2,3-triazol-1-yl)tetrahydro-2H-pyran-3-ol] | –
70 nM | Cc1nc2cc(Cl)c(-n3ncnc3[C@@H]3O[C@H](CO)[C@H](O)[C@H](n4cc(-c5cc(F)c(F)c(F)c5)nn4)[C@H]3O)cc2s1 [Example 51] | –
2790 nM | OC[C@H]1O[C@@H](c2nncn2Cc2ccc(Cl)c(Cl)c2)[C@H](O)[C@@H](n2cc(-c3cc(F)c(F)c(F)c3)nn2)[C@H]1O [Example 119] | –
760 nM | O=S(=O)(Nc1nccs1)c1ccc(-n2cnnc2[C@@H]2O[C@H](CO)[C@H](O)[C@H](n3cc(-c4cc(F)c(F)c(F)c4)nn3)[C@H]2O)cc1 [Example 106] | –
60 nM | CSc1cc(Cl)cc(-n2cnnc2[C@@H]2O[C@H](CO)[C@H](O)[C@H](n3cc(-c4cc(F)c(F)c(F)c4)nn3)[C@H]2O)c1 [Example 147] | –
180 nM | OC[C@H]1O[C@@H](c2ncnn2-c2cccc(Cl)c2)C[C@@H](n2cc(-c3cc(F)c(F)c(F)c3)nn2)[C@H]1O [Example 173, (2R,3R,4R,6R)-6-(1-(3-chlorophenyl)-1H-1,2,4-triazol-5-yl)-2-(hydroxymethyl)-4-(4-(3,4,5-trifluorophenyl)-1H-1,2,3-triazol-1-yl)tetrahydro-2H-pyran-3-ol] | –
440 nM | OC[C@H]1O[C@@H](c2nncn2-c2ccc(F)cc2)[C@H](O)[C@@H](n2cc(-c3cc(F)c(F)c(F)c3)nn2)[C@H]1O [Example 85] | –
9770 nM | CCN(CC)CCNC(=O)c1nnc([C@@H]2O[C@H](CO)[C@H](O)[C@H](n3cc(-c4cccc(F)c4)nn3)[C@H]2O)o1 [Example 297, N-(2-(diethylamino)ethyl)-5-((2R,3R,4S,5R,6R)-4-(4-(3-fluorophenyl)-1H-1,2,3-triazol-1-yl)-3,5-dihydroxy-6-(hydroxymethyl)tetrahydro-2H-pyran-2-yl)-1,3,4-oxadiazole-2-carboxamide] | –
520 nM | OC[C@H]1O[C@@H](c2nncn2-c2ccc(-n3cccc3)cc2)[C@H](O)[C@@H](n2cc(-c3cc(F)c(F)c(F)c3)nn2)[C@H]1O [Example 109] | –
360 nM | OC[C@H]1O[C@@H](c2nncn2-c2ccc(Br)cc2)[C@H](O)[C@@H](n2cc(-c3cc(F)c(F)c(F)c3)nn2)[C@H]1O [Example 88] | –
1550 nM | Cc1nnc(NS(=O)(=O)c2ccc(-n3cnnc3[C@@H]3O[C@H](CO)[C@H](O)[C@H](n4cc(-c5cc(F)c(F)c(F)c5)nn4)[C@H]3O)cc2)s1 [Example 110] | –

The next lines start with the molecule.

Structure (SMILES) | IC50 [1] | other results
Cc1nc([C@@H]2O[C@H](CO)[C@H](O)[C@H](n3cc(-c4cc(F)c(F)c(F)c4)nn3)[C@H]2O)c(-c2cccc(Cl)c2)s1 [Example 284, (2S,3R,4R,5R,6R)-2-(5-(3-chlorophenyl)-2-methylthiazol-4-yl)-6-(hydroxymethyl)-4-(4-(3,4,5-trifluorophenyl)-1H-1,2,3-triazol-1-yl)tetrahydro-2H-pyran-3,5-diol] | 2400 nM | –
OC[C@H]1O[C@@H](c2nncn2-c2ccc3cn[nH]c3c2)[C@H](O)[C@@H](n2cc(-c3cc(F)c(F)c(F)c3)nn2)[C@H]1O [Example 164] | 630 nM | –
Cc1nc([C@@H]2O[C@H](CO)[C@H](O)[C@H](n3cc(-c4cc(F)c(Br)c(F)c4)nn3)[C@H]2O)n(-c2ccc3nc(C)sc3c2)n1 [Example A32] | – | IC50 (read-out: hGal IC50): 41 nM
Cc1nc([C@@H]2O[C@H](CO)[C@H](O)[C@H](n3cc(-c4cc(F)c(F)c(F)c4)nn3)[C@H]2O)n(-c2ccc(Cl)cc2C)n1 [Example 63] | 850 nM | –
Cn1c(=O)sc2cc(-n3cnnc3[C@@H]3O[C@H](CO)[C@H](O)[C@H](n4cc(-c5cc(F)c(F)c(F)c5)nn4)[C@H]3O)ccc21 [Example 136] | 310 nM | –
OC[C@H]1O[C@@H](c2nncn2-c2cc(Cl)ccc2Cl)[C@H](O)[C@@H](n2cc(-c3cc(F)c(F)c(F)c3)nn2)[C@H]1O [Example 135] | 30 nM | –
OC[C@H]1O[C@@H](c2nncn2-c2ccc3ccccc3c2)[C@H](O)[C@@H](n2cc(-c3cc(F)c(F)c(F)c3)nn2)[C@H]1O [Example 95] | 130 nM | –
Cc1nnc([C@@H]2O[C@H](CO)[C@H](O)[C@H](n3cc(-c4cc(F)c(Cl)c(F)c4)nn3)[C@H]2O)n1-c1cc(Cl)ccc1C(F)(F)F [Example 311] | – | IC50 (read-out: hGal3 IC50): 12 nM
Cc1nc([C@@H]2O[C@H](CO)[C@H](O)[C@H](n3cc(-c4ccc(Cl)c(F)c4)nn3)[C@H]2O)n(-c2ccc3nc(C(F)(F)F)sc3c2)n1 [Example A9] | – | IC50 (read-out: hGal IC50): 837 nM
Cn1ncc2ccc(-n3cnnc3[C@@H]3O[C@H](CO)[C@H](O)[C@H](n4cc(-c5cc(F)c(F)c(F)c5)nn4)[C@H]3O)cc21 [Example 166] | 150 nM | –
OC[C@H]1O[C@@H](c2nncn2-c2cccc(F)c2)[C@H](O)[C@@H](n2cc(-c3cc(F)c(F)c(F)c3)nn2)[C@H]1O [Example 154] | 80 nM | –
CS(=O)(=O)c1cc(-n2cnnc2[C@@H]2O[C@H](CO)[C@H](O)[C@H](n3cc(-c4cc(F)c(F)c(F)c4)nn3)[C@H]2O)ccc1F [Example 129] | 600 nM | –
OC[C@H]1O[C@@H](c2nncn2-c2ccc(Cl)c(Cl)c2)[C@H](O)[C@@H](n2cc(-c3cc(F)c(F)c(F)c3)nn2)[C@H]1O [Example 131, (2S,3R,4R,5R,6R)-2-(4-(3,4-dichlorophenyl)-4H-1,2,4-triazol-3-yl)-6-(hydroxymethyl)-4-(4-(3,4,5-trifluorophenyl)-1H-1,2,3-triazol-1-yl)tetrahydro-2H-pyran-3,5-diol] | 100 nM | –
OC[C@H]1O[C@@H](c2nncn2-c2ccccc2OC(F)(F)F)[C@H](O)[C@@H](n2cc(-c3cc(F)c(F)c(F)c3)nn2)[C@H]1O [Example 102] | 300 nM | –
CNC(=O)c1nnc([C@@H]2O[C@H](CO)[C@H](O)[C@H](n3cc(-c4cccc(F)c4)nn3)[C@H]2O)o1 [Example 295, 5-((2R,3R,4S,5R,6R)-4-(4-(3-fluorophenyl)-1H-1,2,3-triazol-1-yl)-3,5-dihydroxy-6-(hydroxymethyl)tetrahydro-2H-pyran-2-yl)-N-methyl-1,3,4-oxadiazole-2-carboxamide] | 14400 nM | –
Cc1nc2c(Cl)cc(-n3cnnc3[C@@H]3O[C@H](CO)[C@H](O)[C@H](n4cc(-c5cc(F)c(F)c(F)c5)nn4)[C@H]3O)cc2s1 [Example 148] | 80 nM | –
Cc1nc2ccc(-n3ncnc3[C@@H]3O[C@H](CO)[C@H](O)[C@H](n4cc(C(=O)NC5CCCC5)nn4)[C@H]3O)cc2s1 [Example 197] | 1320 nM | –
CCOC(=O)c1nnc([C@@H]2O[C@H](CO)[C@H](O)[C@H](n3cc(-c4cc(F)c(F)c(F)c4)nn3)[C@H]2O)n1-c1ccc2nc(C)sc2c1 [Example 275] | – | IC50 (read-out: hGal3 IC50): 60 nM
OC[C@H]1O[C@@H](c2oncc2-c2cccc(Cl)c2)[C@H](O)[C@@H](n2cc(-c3cc(F)c(F)c(F)c3)nn2)[C@H]1O [Ex 289] | – | IC50 (read-out: hGal3 IC50): 8100 nM
Cc1nc([C@@H]2O[C@H](CO)[C@H](O)[C@H](n3cc(-c4cc(F)c(Br)c(F)c4)nn3)[C@H]2O)n(-c2cc(Cl)cc3cccnc23)n1 [Example A14] | – | IC50 (read-out: hGal IC50): 24 nM
Cc1nc2ccc(-n3c([C@@H]4O[C@H](CO)[C@H](O)[C@H](n5cc(-c6cc(F)c(F)c(F)c6)nn5)[C@H]4O)nnc3C(F)(F)F)cc2s1 [Example 274] | – | IC50 (read-out: hGal3 IC50): 50 nM
CO[C@@H]1[C@@H](n2cc(-c3cc(F)c(Cl)c(F)c3)nn2)[C@@H](O)[C@@H](CO)O[C@H]1c1nnc(C)n1-c1cc(Cl)ccc1C(F)(F)F [Example 310] | – | IC50 (read-out: hGal3 IC50): 22 nM
COc1ccc(C(F)(F)F)c(-n2nc(C)nc2[C@@H]2O[C@H](CO)[C@H](O)[C@H](n3cc(-c4cc(F)c(Cl)c(F)c4)nn3)[C@H]2O)c1 [Example A64] | – | IC50 (read-out: hGal IC50): 42 nM
Cc1nc2ccc(-n3ncnc3[C@@H]3O[C@H](CO)[C@H](O)[C@H](n4cc(-c5ccc(N(C)C)c(F)c5)nn4)[C@H]3O)cc2s1 [Example 206] | – | IC50 (read-out: hGal3 IC50): 1540 nM
Cc1ccc(-n2ncnc2[C@@H]2O[C@H](CO)[C@H](O)[C@H](n3cc(-c4cc(F)c(F)c(F)c4)nn3)[C@H]2O)cc1 [Example 39] | 550 nM | –
Cc1nc([C@@H]2O[C@H](CO)[C@H](O)[C@H](n3cc(-c4cc(F)c(Cl)c(F)c4)nn3)[C@H]2O)n(-c2cc(Cl)cc3ncccc23)n1 [Example A16] | – | IC50 (read-out: hGal IC50): 51 nM
Cc1nc([C@@H]2O[C@H](CO)[C@H](O)[C@H](n3cc(-c4ccc(Br)c(F)c4)nn3)[C@H]2O)n(-c2ccc3ncsc3c2)n1 [Example A22] | – | IC50 (read-out: hGal IC50): 22 nM
Cc1nc([C@@H]2O[C@H](CO)[C@H](O)[C@H](n3cc(-c4ccc(Cl)c(F)c4)nn3)[C@H]2O)n(-c2cc(Cl)ccc2F)n1 [Example 249] | – | IC50 (read-out: hGal3 IC50): 90 nM
Cc1nc2ccc(-n3c(C)nnc3[C@@H]3O[C@H](CO)[C@H](O)[C@H](n4cc(-c5ccc(Cl)c(F)c5)nn4)[C@H]3O)cc2s1 [Example 305] | – | IC50 (read-out: hGal3 IC50): 31 nM
